Structures can show the parent of a compound that is named as a salt.
Experiments:
[1] = Plasma concentration of test substance at ED50 value (mice, LC/MS/MS); assay type: in vivo; conditions: at the ED50 value, at time of morphine administration, oral, linear regression from two doses
Protocol: The concentration of the test substances in blood plasma was confirmed by using mice of the same week-old for the same dose as that used in the evaluation of the anti-pruritic effect. The test substance was administered by forced oral administration of an administration vehicle prepared in a similar manner to that in the evaluation of the anti-pruritic effect under a non-fasting condition. The blood samples were collected from the orbital venous plexus, within from 15 minutes after the administration of the test substance to after 180 minutes at the maximum, for multiple times including the timing at which the morphine solution was intracisternally administered, under inhalation anesthesia with diethyl ether or isoflurane using a heparin-treated hematocrit tubes. The collected blood samples were immediately ice-cooled and centrifuged at 1,800 g for 15 minutes at 4° C., and the plasma fractions were transferred and stored under freezing at −30° C. or less until measurement.
The concentrations of the test substances in plasma were measured using LC/MS/MS. Furthermore, as the measurement samples for LC/MS/MS, the supernatants obtained by adding an internal standard substance and acetonitrile in an amount within a range from 5-fold to 10-fold of the amount of the plasma to the collected plasma samples, and removing proteins therefrom, was used.

in vitro = in vitro ADME, mice; conditions: Crl:CD-1 (ICR), mouse, pH 7.4; murine serum, equilibrium dialysis, 37° C., 5 to 6 hours; read-out: Protein binding rate (converted)
Protocol: The protein binding rate was determined by equilibrium dialysis method using the RED Device (8K MWCO, Rapid Equilibrium Dialysis Device, Thermo Scientific). The test substances that had been dissolved in DMSO were added to the serum that was collected from Crl: CD-1 (ICR) mice fasted overnight, so that the final concentration of DMSO became 1% (v/v). The serum to which the test substance had been added was added to the inner side of the dialysis membrane of the RED Device, and PBS (phosphate buffer saline, pH 7.4) containing 0.01% (v/v) Tween 80 was added to the outside in accordance with the method for using the RED Device and incubated at 37° C. for 5 to 6 hours with ellipsoidal shaking at 100 rpm so that the concentration of the unbound test substance in the serum and the concentration of the test substance in the PBS reached equilibrium. After the incubation was completed, the respective solutions were collected and stored under freezing at −60° C. or less as measurement samples. The proteins were removed from the measurement sample by adding acetonitrile in an amount of 5-fold or more of the amount of the internal standard substance and the serum sample, and the supernatants were measured by LC/MS/MS (liquid chromatograph—triple quadrupole mass spectrometer). The serum samples were measured after suitably diluting with distilled water as necessary.
A: the concentration of the test substance in the PBS sample
B: the concentration of the test substance in the serum sample

hERG = hERG (Homo sapiens (Human), UniProt Q12809); experiment: Safety margin against hERG inhibitory activity; conditions: hERG IC50×1000/{concentration in plasma at ED50×(1−protein binding rate/100)}
Protocol: In order to compare the risks of extension of QT interval prolongation in the electrocardiogram among the test substances, the safety margins against the hERG inhibitory effect were calculated. […] Therefore, the following formula was used for calculating the safety margin, and the obtained values were described in Table 7. Safety margin against hERG inhibitory effect=IC50×1000/{concentration in plasma×(1−protein binding rate/100)}
IC50: the IC50 value in a hERG inhibition assay (μM)
Plasma concentration: the plasma concentration of test substance (nM) at the ED50 value in the test for evaluating the anti-pruritic effect in the morphine model
Protein binding rate: the protein binding rate (%) in the protein binding assay in murine serum

SMILES | Plasma concentration of test substance [1] | fraction unbound (in vitro) | Safety margin (hERG)
CC[C@]1(c2cc(NS(=O)(=O)C3CC3)ccc2F)[C@@H]2CN(CCCC3CCC(F)(F)CC3)C[C@@H]21 [Example 5-(b), N-(3-{(1R,5S,6r)-3-[3-(4,4-difluorocyclohexyl)propyl]-6-ethyl-3-azabicyclo[3.1.0]hexan-6-yl}-4-fluorophenyl)cyclopropanesulfonamide hydrochloride] | 116 nM | 0.005 | 153
CC[C@]1(c2cc(NS(=O)(=O)C3CC3)ccc2F)[C@@H]2CN(CCCN3CCC(F)(F)CC3)C[C@@H]21 [Example 15-(b), N-(3-{(1R,5S,6r)-3-[3-(4,4-difluoropiperidin-1-yl)propyl]-6-ethyl-3-azabicyclo[3.1.0]hexan-6-yl}-4-fluorophenyl)cyclopropanesulfonamide hydrochloride] | 71.5 nM | 0.1 | 182
CC[C@]1(c2cc(F)cc(NS(=O)(=O)C3CC3)c2)[C@@H]2CN(CC3(O)Cc4ccccc4C3)C[C@@H]21 [Example 10-(b), N-(3-{(1R,5S,6r)-6-ethyl-3-[(2-hydroxy-2,3-dihydro-1H-inden-2-yl)methyl]-3-azabicyclo[3.1.0]hexan-6-yl}-5-fluorophenyl)cyclopropanesulfonamide hydrochloride] | 129 nM | 0.102 | 5
CC[C@]1(c2cccc(NS(=O)(=O)C3CC3)c2)[C@@H]2CN(CCCN3CCC(F)(F)C3)C[C@@H]21 [Example 8-(b), N-(3-{(1R,5S,6r)-3-[3-(3,3-difluoropyrrolidin-1-yl)propyl]-6-ethyl-3-azabicyclo[3.1.0]hexan-6-yl}phenyl)cyclopropanesulfonamide hydrochloride] | 10.9 nM | 0.316 | 99
CC[C@]1(c2cc(NS(=O)(=O)C3CC3)ccc2F)[C@@H]2CN(CC3(O)Cc4ccccc4C3)C[C@@H]21 [Example 2-(b), N-(3-{(1R,5S,6r)-6-ethyl-3-[(2-hydroxy-2,3-dihydro-1H-inden-2-yl)methyl]-3-azabicyclo[3.1.0]hexan-6-yl}-4-fluorophenyl)cyclopropanesulfonamide hydrochloride] | 21.4 nM | 0.006 | 1250
CC[C@]1(c2cccc(NS(=O)(=O)C3CC3)c2)[C@@H]2CN(CCCC3CCC(F)(F)CC3)C[C@@H]21 [Example 4-(b), N-(3-{(1R,5S,6r)-3-[3-(4,4-difluorocyclohexyl)propyl]-6-ethyl-3-azabicyclo[3.1.0]hexan-6-yl}phenyl)cyclopropanesulfonamide hydrochloride] | 31.6 nM | 0.019 | 157
CC[C@]1(c2cccc(NS(=O)(=O)C3CC3)c2)[C@@H]2CN(CCCN3CCCC(F)(F)C3)C[C@@H]21 [Example 16-(b), N-(3-{(1R,5S,6r)-3-[3-(3,3-difluoropiperidin-1-yl)propyl]-6-ethyl-3-azabicyclo[3.1.0]hexan-6-yl}phenyl)cyclopropanesulfonamide hydrochloride] | 44.5 nM | 0.246 | 58
